Measurements: patent publication US20260055079A1, “PHTHALAZINONE COMPOUNDS AS PARP7 INHIBITORS” (AZKARRA THERAPEUTICS, INC., priority 2022, published 2026)
pIC50: −log10 of the molar value. Where two headings read alike, the source gives them in different places.

Assays:
[1] = molecular target: His-GST-PARP7 (Homo sapiens (Human), UniProt Q7Z3E1); test: PARP7 biochemical assay; settings: read-out: PARP7 IC50
[2] = molecular target: PARP2 (Homo sapiens (Human), UniProt Q9UGN5); test: PARP2 biochemical assay
PARP2, sequence (Q9UGN5 whole entry): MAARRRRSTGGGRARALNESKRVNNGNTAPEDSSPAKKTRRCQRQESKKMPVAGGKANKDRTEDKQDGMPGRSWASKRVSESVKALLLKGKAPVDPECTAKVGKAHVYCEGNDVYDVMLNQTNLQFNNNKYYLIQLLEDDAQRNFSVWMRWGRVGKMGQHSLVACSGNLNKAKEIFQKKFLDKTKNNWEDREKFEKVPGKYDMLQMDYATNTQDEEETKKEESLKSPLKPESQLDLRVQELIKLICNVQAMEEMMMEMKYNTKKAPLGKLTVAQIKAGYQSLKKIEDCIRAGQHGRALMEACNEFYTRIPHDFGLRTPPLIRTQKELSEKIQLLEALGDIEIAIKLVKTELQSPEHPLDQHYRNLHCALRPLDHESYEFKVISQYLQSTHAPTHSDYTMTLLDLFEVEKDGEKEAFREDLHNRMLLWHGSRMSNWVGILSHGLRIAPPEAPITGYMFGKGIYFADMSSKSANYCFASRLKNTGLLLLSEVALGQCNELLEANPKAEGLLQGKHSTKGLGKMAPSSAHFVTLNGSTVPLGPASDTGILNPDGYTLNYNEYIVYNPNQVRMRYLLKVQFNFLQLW

[3] = system: NCI-H1373 (human lung adenocarcinoma) cells; test: Cell proliferation assay (CellTiter-Glo), NCI-H1373; type: cell-based; settings: Homo sapiens, NCI-H1373, 144 h; 6 days, CellTiter-Glo; read-out: NCI-H1373 GI50
[4] = system: HARA (human lung squamous cell carcinoma) cells; test: Cell proliferation assay (CellTiter-Glo), HARA; type: cell-based; settings: Homo sapiens, 144 h; 6 days, CellTiter-Glo; read-out: HARA GI50

His-GST-PARP7, sequence (Q7Z3E1 whole entry): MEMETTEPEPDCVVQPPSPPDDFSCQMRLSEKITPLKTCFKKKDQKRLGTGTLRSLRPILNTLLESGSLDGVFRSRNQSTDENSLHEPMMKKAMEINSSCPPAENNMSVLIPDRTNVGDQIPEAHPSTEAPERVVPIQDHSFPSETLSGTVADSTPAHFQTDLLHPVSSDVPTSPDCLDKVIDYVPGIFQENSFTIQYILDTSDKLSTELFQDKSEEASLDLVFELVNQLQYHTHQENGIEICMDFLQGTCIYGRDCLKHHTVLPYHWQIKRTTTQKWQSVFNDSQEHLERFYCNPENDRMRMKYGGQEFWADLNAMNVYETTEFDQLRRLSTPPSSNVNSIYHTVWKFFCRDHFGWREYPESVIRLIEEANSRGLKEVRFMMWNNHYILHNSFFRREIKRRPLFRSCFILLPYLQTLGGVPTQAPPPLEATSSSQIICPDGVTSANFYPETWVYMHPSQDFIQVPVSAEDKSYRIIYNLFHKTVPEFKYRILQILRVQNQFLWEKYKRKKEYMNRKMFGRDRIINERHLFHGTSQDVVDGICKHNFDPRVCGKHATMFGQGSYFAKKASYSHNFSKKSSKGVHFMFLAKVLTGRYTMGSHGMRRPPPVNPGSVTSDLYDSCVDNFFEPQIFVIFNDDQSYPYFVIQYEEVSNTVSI

Compound | pIC50 [1] | pIC50 ([2]; read-out: PARP2 IC50) | pIC50 [2] | GI50 [3] [nM] | GI50 [4] [nM]
O=C(c1cc(Cc2n[nH]c(=O)c3ccc(C4CC4)cc23)ccc1F)N1CCN(c2ncc(C(F)(F)F)cn2)CC1 [Example 45, 6-Cyclopropyl-4-(4-fluoro-3-(4-(5-(trifluoromethyl)pyrimidin-2-yl)piperazine-1-carbonyl)benzyl)phthalazin-1(2H)-one] | > 7.30 | 6.30 to 7.00 |  |  | 
4-(4-Fluoro-3-(4-(5-(trifluoromethyl)pyrimidin-2-yl)piperazine-1-carbonyl)benzyl)-6-isobutylphthalazin-1(2H)-one [Example 44] | > 7.30 | 7.00 to 7.30 |  |  | 
N#Cc1ccc(N2CCN(C(=O)c3cc(Cc4n[nH]c(=O)c5ccc(N6CC(F)(F)C6)cc45)ccc3F)CC2)nc1 [Example 18, 6-(4-(5-((7-(3,3-Difluoroazetidin-1-yl)-4-oxo-3,4-dihydrophthalazin-1-yl)methyl)-2-fluorobenzoyl)piperazin-1-yl)nicotinonitrile] | > 7.30 | 6.30 to 7.00 |  |  | 
CC#Cc1ccc2c(=O)[nH]nc(Cc3ccc(F)c(C(=O)N(C)CCN(CC)c4ccc(C#N)cn4)c3)c2c1 [Example 198, N-(2-((5-Cyanopyridin-2-yl)(ethyl)amino)ethyl)-2-fluoro-N-methyl-5-((4-oxo-7-(prop-1-yn-1-yl)-3,4-dihydrophthalazin-1-yl)methyl)benzamide] | > 7.30 | < 5.70 |  |  | 
CC(C)(C)Cc1ccc2c(=O)[nH]nc(Cc3ccc(F)c(C(=O)N4CCN(c5ccc(C#N)cn5)CC4)c3)c2c1 [Example 41, 6-(4-(2-Fluoro-5-((7-neopentyl-4-oxo-3,4-dihydrophthalazin-1-yl)methyl)benzoyl)piperazin-1-yl)nicotinonitrile] | 6.30 to 7.00 | 6.30 to 7.00 |  |  | 
O=C(c1cc(Cc2n[nH]c(=O)c3ccc(C#CC(F)(F)F)cc23)ccc1F)N1CCN(c2ncc(C(F)(F)F)cn2)CC1 [Example 49, 4-(4-Fluoro-3-(4-(5-(trifluoromethyl)pyrimidin-2-yl)piperazine-1-carbonyl)benzyl)-6-(3,3,3-trifluoroprop-1-yn-1-yl)phthalazin-1(2H)-one] | 6.30 to 7.00 | 6.30 to 7.00 |  |  | 
N#Cc1ccc(N2CCN(C(=O)c3cc(Cc4n[nH]c(=O)c5ccc(C#CC(F)(F)F)cc45)ccc3F)CC2)nc1 [Example 24, 6-(4-(2-Fluoro-5-((4-oxo-7-(3,3,3-trifluoroprop-1-ynyl)-3,4-dihydrophthalazin-1-yl)methyl)benzoyl)piperazin-1-yl)nicotinonitrile] | > 7.30 | 6.30 to 7.00 |  |  | 
N#Cc1ccc(N2CCN(C(=O)c3cc(Cc4n[nH]c(=O)c5ccc(CCC(F)(F)F)cc45)ccc3F)CC2)nc1 [Example 25, 6-(4-(2-Fluoro-5-((4-oxo-7-(3,3,3-trifluoropropyl)-3,4-dihydrophthalazin-1-yl)methyl)benzoyl)piperazin-1-yl)nicotinonitrile] |  | 6.30 to 7.00 |  |  | 
N#Cc1ccc(N2CCN(C(=O)c3cc(Cc4n[nH]c(=O)c5ccc(/C=C/C(F)(F)F)cc45)ccc3F)CC2)nc1 [Example 27, (E)-6-(4-(2-Fluoro-5-((4-oxo-7-(3,3,3-trifluoroprop-1-enyl)-3,4-dihydrophthalazin-1-yl)methyl)benzoyl)piperazin-1-yl)nicotinonitrile] |  |  | 7.00 to 7.30 |  | 
N#Cc1cnc(N2CCN(C(=O)c3cc(Cc4n[nH]c(=O)c5ccc(OC6CCC6)cc45)ccc3F)CC2)c(C(F)(F)F)c1 [Example 129, 6-(4-(5-((7-cyclobutoxy-4-oxo-3,4-dihydrophthalazin-1-yl)methyl)-2-fluorobenzoyl)piperazin-1-yl)-5-(trifluoromethyl)nicotinonitrile] | > 7.30 |  |  | 1000 to 5000 | 1000 to 5000
O=C(c1cc(Cc2n[nH]c(=O)c3ccc(OC4CCC4)cc23)ccc1F)N1CCN(c2cnc(C(F)(F)F)cn2)CC1 [Example 160, 6-cyclobutoxy-4-(4-fluoro-3-(4-(5-(trifluoromethyl)pyrazin-2-yl)piperazine-1-carbonyl)benzyl)phthalazin-1(2H)-one] | > 7.30 |  |  | < 100 | 1000 to 5000
O=C(c1cc(Cc2n[nH]c(=O)c3ccc(OC4CCC4)cc23)ccc1F)N1CCN(c2ccc(CO)cn2)CC1 [Example 130, 6-cyclobutoxy-4-(4-fluoro-3-(4-(5-(hydroxymethyl)pyridin-2-yl)piperazine-1-carbonyl)benzyl)phthalazin-1(2H)-one] | > 7.30 |  |  | 100 to 1000 | > 5000
N#Cc1ccc(N2CCN(c3noc4ccc(Cc5n[nH]c(=O)c6ccc(OC7CCC7)cc56)cc34)CC2)nc1 [Example 211, 6-(4-(5-((7-cyclobutoxy-4-oxo-3,4-dihydrophthalazin-1-yl)methyl)benzo[d]isoxazol-3-yl)piperazin-1-yl)nicotinonitrile] | 6.30 to 7.00 |  |  | 1000 to 5000 | 1000 to 5000
Cc1nc(N2CCN(C(=O)c3cc(Cc4n[nH]c(=O)c5ccc(OC6CCC6)cc45)ccc3F)CC2)ccc1C#N [Example 133, 6-(4-(5-((7-cyclobutoxy-4-oxo-3,4-dihydrophthalazin-1-yl)methyl)-2-fluorobenzoyl)piperazin-1-yl)-2-methylnicotinonitrile] | > 7.30 |  |  | 100 to 1000 | > 5000
O=C(c1cc(Cc2n[nH]c(=O)c3ccc(OC4CCC4)cc23)ccc1F)N1CCCN(C(=O)C2CC2)CC1 [Example 101, 6-Cyclobutoxy-4-(3-(4-(cyclopropanecarbonyl)-1,4-diazepane-1-carbonyl)-4-fluorobenzyl)phthalazin-1(2H)-one] | > 7.30 |  |  | > 5000 | > 5000
COc1cc(C#N)cnc1N1CCN(C(=O)c2cc(Cc3n[nH]c(=O)c4ccc(OC5CCC5)cc34)ccc2F)CC1 [Example 131, 6-(4-(5-((7-cyclobutoxy-4-oxo-3,4-dihydrophthalazin-1-yl)methyl)-2-fluorobenzoyl)piperazin-1-yl)-5-methoxynicotinonitrile] | > 7.30 |  |  | 100 to 1000 | 1000 to 5000
Cc1cc(N2CCN(C(=O)c3cc(Cc4n[nH]c(=O)c5ccc(OC6CCC6)cc45)ccc3F)CC2)ncc1C#N [Example 134, 6-(4-(5-((7-cyclobutoxy-4-oxo-3,4-dihydrophthalazin-1-yl)methyl)-2-fluorobenzoyl)piperazin-1-yl)-4-methylnicotinonitrile] | > 7.30 |  |  | < 100 | 100 to 1000
O=C(c1cc(Cc2n[nH]c(=O)c3ccc(OC4CCC4)cc23)ccc1F)N1CCN(c2ccc(C(F)(F)F)cn2)CC1 [Example 155, 6-cyclobutoxy-4-(4-fluoro-3-(4-(5-(trifluoromethyl)pyridin-2-yl)piperazine-1-carbonyl)benzyl)phthalazin-1(2H)-one] | > 7.30 |  |  | < 100 | 1000 to 5000
CCc1ccc2c(=O)[nH]nc(Cc3ccc(F)c(C(=O)N4CCN(c5ncc(C(F)(F)F)cn5)CC4)c3)c2c1 [Example 43, 6-Ethyl-4-(4-fluoro-3-(4-(5-(trifluoromethyl)pyrimidin-2-yl)piperazine-1-carbonyl)benzyl)phthalazin-1(2H)-one] |  | 6.30 to 7.00 |  |  | 
CC(CC(=O)N1CCN(c2ccc(C#N)cn2)CC1)NCc1n[nH]c(=O)c2ccc(OC3CC3)cc12 (centres unmarked) [Example 196, 6-(4-(3-(((7-Cyclopropoxy-4-oxo-3,4-dihydrophthalazin-1-yl)methyl)amino)butanoyl)piperazin-1-yl)nicotinonitrile] | > 7.30 |  |  | 1000 to 5000 | 1000 to 5000
